Columns and labels:
Type in all cases: cell-based
[1] = tested on: T-Rex 293 cell line SC3 cells having increased expression of androgen receptor protein; assay: Cellular growth inhibition, T-Rex 293 SC3 cells with doxycycline (increased androgen receptor expression); details: with 10 ng/mL doxycycline (increased androgen receptor), 72 hours, CellTiter-Glo 2.0
In short: (§1)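 Growth inhibition is measured in an inducible AR-expressing T-Rex 293 clone, SC3, cultured with or without 10 ng/mL doxycycline in hormone-depleted medium. Test compounds are applied for 72 hours. GI50 values derive from CellTiter-Glo 2.0 signal fitted by four-parameter regression.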

[2] = tested on: T-Rex 293 cell line SC3 cells lacking increased expression of androgen receptor protein; assay: Cellular growth inhibition, T-Rex 293 SC3 cells without doxycycline; details: not exposed to doxycycline, 72 hours, CellTiter-Glo 2.0
In short: as §1

[3] = tested on: VCaP cells; assay: Cellular growth inhibition assay for VCaP cells; details: Homo sapiens, 72 hours, CellTiter-Glo 2.0
[4] = tested on: T47D cells; assay: Cellular growth inhibition assay for T47D cells; details: Homo sapiens, 72 hours, CellTiter-Glo 2.0
In short: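 Growth inhibition as GI50, fitted with four parameters to CellTiter-Glo luminescence after 72 h of compound exposure (0.5% DMSO). Cells were T47D, grown in insulin-supplemented (0.2 units/mL) DMEM with 10% FBS and treated one day post-seeding.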

Row | Compound | GI50 [1] [nM] | GI50 [2] [nM] | GI50 [3] [nM] | GI50 [4] [nM]
1 | CCc1cnn2c(NCc3ccc(N4CCC(N5CCN(C6CN(c7ncc(C(=O)N[C@H]8C(C)(C)[C@H](Oc9ccc(C#N)c(Cl)c9)C8(C)C)cn7)C6)CC5)CC4)nc3)cc(N3CCCC[C@H]3CCO)nc12 [Compound I-86] | < 100 | < 100 | < 100 | < 500
2 | CC1(C)[C@H](NC(=O)c2cnc(N3CCC(CN4CCN(CCN5C/C=C/CCOc6cccc(c6)-c6ccnc(n6)Nc6cccc(c6)C5)CC4)CC3)nc2)C(C)(C)[C@H]1Oc1ccc(C#N)c(Cl)c1 [Compound I-94] | 100 to 1000 | 1000 to 3500 | > 3500 | > 3000
3 | Cc1ncc(-c2nc(Nc3ccc(C(=O)N4CC[C@H](N(C)CCOC5CCN(c6ncc(C(=O)N[C@H]7C(C)(C)[C@H](Oc8ccc(C#N)c(Cl)c8)C7(C)C)cn6)CC5)C4)cc3)ncc2F)n1C(C)C [Compound I-95, N-[3-(3-chloro-4-cyano-phenoxy)-2,2,4,4-tetramethyl-cyclobutyl]-2-[4-[2-[[(3S)-1-[4-[[5-fluoro-4-(3-isopropyl-2-methyl-imidazol-4-yl)pyrimidin-2-yl]amino]benzoyl]pyrrolidin-3-yl]-methyl-amino]ethoxy]-1-piperidyl]pyrimidine-5-carboxamide] | 1000 to 3500 | 1000 to 3500 | 1000 to 3500 | 500 to 1500
4 | Cc1ncc(-c2nc(Nc3ccc(C(=O)N4CC[C@H](N(C)CCOCCOCCOC5CCN(c6ncc(C(=O)N[C@H]7C(C)(C)[C@H](Oc8ccc(C#N)c(Cl)c8)C7(C)C)cn6)CC5)C4)cc3)ncc2F)n1C(C)C [Compound I-96] | 100 to 1000 | 1000 to 3500 | 1000 to 3500 | 1500 to 3000
5 | Cc1ncc(-c2nc(Nc3ccc(C(=O)N4CC[C@H](N(C)CCOCCOCCOCCOCCOC5CCN(c6ncc(C(=O)N[C@H]7C(C)(C)[C@H](Oc8ccc(C#N)c(Cl)c8)C7(C)C)cn6)CC5)C4)cc3)ncc2F)n1C(C)C [Compound I-97] | 1000 to 3500 | 1000 to 3500 | 1000 to 3500 | 1500 to 3000
6 | CCc1cnn2c(NCc3ccc(OCCCN4CCN(CC5CCN(c6ccc(C(=O)N[C@H]7C(C)(C)[C@H](Oc8ccc(C#N)c(Cl)c8)C7(C)C)cc6)CC5)CC4)nc3)cc(N3CCCC[C@@H]3CCO)nc12 [II-1, N-((1r,3r)-3-(3-chloro-4-cyanophenoxy)-2,2,4,4-tetramethylcyclobutyl)-4-(4-((4-(3-((5-(((3-ethyl-5-((R)-2-(2-hydroxyethyl)piperidin-1-yl)pyrazolo[1,5-a]pyrimidin-7-yl)amino)methyl)pyridin-2-yl)oxy)propyl)piperazin-1-yl)methyl)piperidin-1-yl)benzamide] | < 100 | 100 to 1000 | < 100 | < 500
